{"source": "patent EP4624469A1", "about": "(Jiangsu Hengrui Pharmaceuticals Co., Ltd., priority 2022, dated 2024)", "key": {"miR-124": {"tested_on": "miR-124", "test": "Up-regulation of miR-124 in CD3/CD28 antibody-activated T cells (SYBR green fluorescence quantitative PCR)", "type": "cell-based", "conditions": "T-cell, 72 h; activated human T cells, final compound concentration 1 µM, 3 days; relative to DMSO, U6 internal reference; read-out: up-regulated miR-124 (relative expression level)", "protocol": "The effect of the compound on miR-124 expression levels was assessed in CD3/CD28 antibody-activated T cells. After the activated T cells were treated with the compound, the total cellular RNA was extracted, the cDNA obtained from reverse transcription was used as a template, and quantification was performed by using an SYBR green fluorescence quantitative PCR method and a specific miR-124 primer.\nIsolation of T cells: The purchased human peripheral blood mononuclear cells (PBMCs) were counted, filtered, and then washed once with a separation buffer (PBS, pH 7.4, containing 0.5% BSA and 2 mM EDTA), and the supernatant was discarded. Various components were added in such a manner that for every 1 × 10^7 cells, 40 µL of buffer and 10 µL of pan T Cell Biotin-Antibody Cocktail were added. The pellets were resuspended and well mixed, and the suspension was incubated in a refrigerator at 4 °C for 5 min. After the incubation was completed, various components were added in such a manner that for every 1 × 10^7 cells, 30 µL of buffer and 20 µL of Pan T Cell MicroBeads Cocktail were added. After thorough mixing, the mixture was incubated in a refrigerator at 4 °C for 10 min. […] The cells were counted and added at a density of 1 × 10^6 cells/mL to an RPMI1640 culture medium (complete culture medium) containing 10% FBS and 40 U/mL IL-2, and the mixture was stored on ice for later use. […]"}, "[1]": {"test": "DVS (dynamic vapor sorption) hygroscopicity testing", "type": "physicochemical", "protocol": "DVS refers to dynamic vapor sorption: Surface Measurement Systems instrinsic was adopted; the humidity started at 50%, the humidity range of the investigation was 0%-95%, and the humidity was increased in increments of 10%; the criterion was that each gradient mass change dM/dT is ≤ 0.002%, TMAX 360 min, two cycles."}, "[2]": {"test": "Influencing factors stability test (light exposure, high temperature, high humidity)", "type": "physicochemical", "conditions": "for remaining at 120 h / remaining at 240 h / remaining at 720 h: solid storage, read-out: Purity%", "from_the_text": "Table 11. The influencing factor stability of the crystal form"}, "[3]": {"test": "Long-term accelerated stability tests", "type": "physicochemical", "conditions": "for Purity (%): Initial; for Crystal form: up to 6 months", "from_the_text": "Table 12. The long-term accelerated stability of the crystal form"}, "[4]": {"conditions": "Light exposure (4500 Lux), 5 days"}, "[5]": {"conditions": "Light exposure (4500 Lux), 10 days"}, "[6]": {"conditions": "Light exposure (4500 Lux), 30 days"}}, "note": "Read-outs that look alike come from different tables or passages of the source."}
{"compound": "FC1(F)Oc2ccc(Nc3ccc4cccc(Cl)c4n3)cc2O1", "note": "[Compound 1, 8-Chloro-N-(2,2-difluorobenzo[d][1,3]dioxol-5-yl)quinolin-2-amine]", "values": [{"measurement": "fold induction at 1 µM", "setting": "miR-124", "value": 3.9}]}
{"compound": "FC1(F)Oc2ccc(Nc3ccc4cccc(Cl)c4n3)cc2O1", "note": "[crystal form A, 8-chloro-N-(2,2-difluorobenzo[d][1,3]dioxol-5-yl)quinolin-2-amine]", "values": [{"measurement": "hygroscopic weight gain", "setting": "[1]; accelerated experimental conditions (70% RH)", "value": "about 0.02%"}, {"measurement": "crystal form re-identified after DVS testing", "setting": "[1]; after DVS testing", "value": "the crystal form did not change"}, {"measurement": "hygroscopic weight gain", "setting": "[1]; extreme conditions (90% RH)", "value": "about 0.18%"}, {"measurement": "hygroscopic weight gain", "setting": "[1]; normal storage conditions (room temperature and 60% RH)", "value": "about 0.02%"}, {"measurement": "Color and state", "setting": "[2]; 40°C, 5 days", "value": "Off-white solid"}, {"measurement": "Crystal form", "setting": "[2]; 40°C, 5 days", "value": "Did not change"}, {"measurement": "Color and state", "setting": "[2]; 40°C, 10 days", "value": "Off-white solid"}, {"measurement": "Crystal form", "setting": "[2]; 40°C, 10 days", "value": "Did not change"}, {"measurement": "Color and state", "setting": "[2]; 40°C, 30 days", "value": "Off-white solid"}, {"measurement": "Crystal form", "setting": "[2]; 40°C, 30 days", "value": "Did not change"}, {"measurement": "Color and state", "setting": "[2]; 60°C, 5 days", "value": "Off-white solid"}, {"measurement": "Crystal form", "setting": "[2]; 60°C, 5 days", "value": "Did not change"}, {"measurement": "Color and state", "setting": "[2]; 60°C, 10 days", "value": "Off-white solid"}, {"measurement": "Crystal form", "setting": "[2]; 60°C, 10 days", "value": "Did not change"}, {"measurement": "Color and state", "setting": "[2]; 60°C, 30 days", "value": "Off-white solid"}, {"measurement": "Crystal form", "setting": "[2]; 60°C, 30 days", "value": "Did not change"}, {"measurement": "Color and state", "setting": "[2]; 75% RH, 5 days", "value": "Off-white solid"}, {"measurement": "Crystal form", "setting": "[2]; 75% RH, 5 days", "value": "Did not change"}, {"measurement": "Color and state", "setting": "[2]; 75% RH, 10 days", "value": "Off-white solid"}, {"measurement": "Crystal form", "setting": "[2]; 75% RH, 10 days", "value": "Did not change"}, {"measurement": "Color and state", "setting": "[2]; 75% RH, 30 days", "value": "Off-white solid"}, {"measurement": "Crystal form", "setting": "[2]; 75% RH, 30 days", "value": "Did not change"}, {"measurement": "Color and state", "setting": "[2]; 92.5% RH, 5 days", "value": "Off-white solid"}, {"measurement": "Crystal form", "setting": "[2]; 92.5% RH, 5 days", "value": "Did not change"}, {"measurement": "Color and state", "setting": "[2]; 92.5% RH, 10 days", "value": "Off-white solid"}, {"measurement": "Crystal form", "setting": "[2]; 92.5% RH, 10 days", "value": "Did not change"}, {"measurement": "Color and state", "setting": "[2]; 92.5% RH, 30 days", "value": "Off-white solid"}, {"measurement": "Crystal form", "setting": "[2]; 92.5% RH, 30 days", "value": "Did not change"}, {"measurement": "Color and state", "setting": "[2]; Initial, 0 days", "value": "Off-white solid"}, {"measurement": "Crystal form", "setting": "[2]; Initial, 0 days", "value": "Crystal form A"}, {"measurement": "Purity (%)", "setting": "[2]; Initial, 0 days", "value": 100.0, "unit": "%"}, {"measurement": "Color and state", "setting": "[2]; [4]", "value": "Off-white solid"}, {"measurement": "Crystal form", "setting": "[2]; [4]", "value": "Did not change"}, {"measurement": "Color and state", "setting": "[2]; [5]", "value": "Off-white solid"}, {"measurement": "Crystal form", "setting": "[2]; [5]", "value": "Did not change"}, {"measurement": "Color and state", "setting": "[2]; [6]", "value": "Off-white solid"}, {"measurement": "Crystal form", "setting": "[2]; [6]", "value": "Did not change"}, {"measurement": "physical and chemical stability (conclusion)", "setting": "[2]; light exposure, 40 °C and 60 °C, 75% and 92.5% humidity, 30 days", "value": "both good physical stability and good chemical stability"}, {"measurement": "remaining at 120 h", "setting": "[2]; 40°C, 5 days", "value": 100, "unit": "%"}, {"measurement": "remaining at 240 h", "setting": "[2]; 40°C, 10 days", "value": 100, "unit": "%"}, {"measurement": "remaining at 720 h", "setting": "[2]; 40°C, 30 days", "value": 100, "unit": "%"}, {"measurement": "remaining at 120 h", "setting": "[2]; 60°C, 5 days", "value": 100, "unit": "%"}, {"measurement": "remaining at 240 h", "setting": "[2]; 60°C, 10 days", "value": 100, "unit": "%"}, {"measurement": "remaining at 720 h", "setting": "[2]; 60°C, 30 days", "value": 100, "unit": "%"}, {"measurement": "remaining at 120 h", "setting": "[2]; 75% RH, 5 days", "value": 100, "unit": "%"}, {"measurement": "remaining at 240 h", "setting": "[2]; 75% RH, 10 days", "value": 100, "unit": "%"}, {"measurement": "remaining at 720 h", "setting": "[2]; 75% RH, 30 days", "value": 100, "unit": "%"}, {"measurement": "remaining at 120 h", "setting": "[2]; 92.5% RH, 5 days", "value": 100, "unit": "%"}, {"measurement": "remaining at 240 h", "setting": "[2]; 92.5% RH, 10 days", "value": 100, "unit": "%"}, {"measurement": "remaining at 720 h", "setting": "[2]; 92.5% RH, 30 days", "value": 100, "unit": "%"}, {"measurement": "remaining at 120 h", "setting": "[2]; [4]", "value": 100, "unit": "%"}, {"measurement": "remaining at 240 h", "setting": "[2]; [5]", "value": 100, "unit": "%"}, {"measurement": "remaining at 720 h", "setting": "[2]; [6]", "value": 99.9, "unit": "%"}, {"measurement": "Purity (%)", "setting": "[3]; 25 °C, 60% RH", "value": 100.0, "unit": "%"}, {"measurement": "Crystal form", "setting": "[3]; 25 °C, 60% RH", "value": "Did not change"}, {"measurement": "physical and chemical stability (conclusion)", "setting": "[3]; 25 °C/60% RH and 40 °C/75% RH, 6 months", "value": "both good physical stability and good chemical stability"}, {"measurement": "Purity (%)", "setting": "[3]; 40 °C, 75% RH", "value": 100.0, "unit": "%"}, {"measurement": "Crystal form", "setting": "[3]; 40 °C, 75% RH", "value": "Did not change"}, {"measurement": "remaining at 720 h", "setting": "[3]; solid storage, 25 °C, 60% RH, 1M, read-out: Purity (%)", "value": 100, "unit": "%"}, {"measurement": "remaining at 1440 h", "setting": "[3]; solid storage, 25 °C, 60% RH, 2M, read-out: Purity (%)", "value": 100, "unit": "%"}, {"measurement": "remaining at 2160 h", "setting": "[3]; solid storage, 25 °C, 60% RH, 3M, read-out: Purity (%)", "value": 100, "unit": "%"}, {"measurement": "remaining at 4320 h", "setting": "[3]; solid storage, 25 °C, 60% RH, 6M, read-out: Purity (%)", "value": 100, "unit": "%"}]}
